Reference: PubChem BioAssay AID248 (DTP/NCI, 2004)
Inconclusive results and toxic doses are left out. Cut-off read from the data, not from the text of the source: active = T/C of 150% or more; inactive = T/C below 125%.

Test system: L1210 leukemia ip in BDF1 mice, survival T/C
Experiment: NCI In Vivo Anticancer Drug Screen. Data for tumor model L1210 Leukemia (intraperitoneal) in B6D2F1 (BDF1) mice
Details: endpoint: mean survival time, higher = longer survival
Summary of the method: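 Read-out is survival time, reported as the treated-group measurement over the vehicle-control measurement.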

[1] = dose: 100.0 mg/kg/injection, schedule: Q04DX002 (ip), vehicle: saline
[2] = dose: 100.0 mg/kg/injection, schedule: Q01DX001 (ip), vehicle: saline
[3] = dose: 200.0 mg/kg/injection, schedule: Q01DX001 (ip), vehicle: saline
[4] = dose: 100.0 mg/kg/injection, schedule: Q01DX001 (ip), vehicle: carboxymethylcellulose (CMC)
[5] = dose: 200.0 mg/kg/injection, schedule: Q01DX001 (ip), vehicle: carboxymethylcellulose (CMC)
[6] = dose: 400.0 mg/kg/injection, schedule: Q01DX001 (ip), vehicle: carboxymethylcellulose (CMC)
[7] = dose: 100.0 mg/kg/injection, schedule: Q01DX009 (ip), vehicle: saline with Tween-80
[8] = dose: 200.0 mg/kg/injection, schedule: Q01DX009 (ip), vehicle: saline with Tween-80
[9] = dose: 400.0 mg/kg/injection, schedule: Q01DX009 (ip), vehicle: saline with Tween-80
[10] = dose: 100.0 mg/kg/injection, schedule: Q01DX009 (ip), vehicle: Klucel (hydroxypropylcellulose) (HPC)
[11] = dose: 100.0 mg/kg/injection, schedule: Q04DX003 (ip), vehicle: Klucel (hydroxypropylcellulose) (HPC)
[12] = dose: 200.0 mg/kg/injection, schedule: Q01DX009 (ip), vehicle: Klucel (hydroxypropylcellulose) (HPC)
[13] = dose: 200.0 mg/kg/injection, schedule: Q04DX003 (ip), vehicle: Klucel (hydroxypropylcellulose) (HPC)
[14] = dose: 400.0 mg/kg/injection, schedule: Q01DX009 (ip), vehicle: Klucel (hydroxypropylcellulose) (HPC)
[15] = dose: 400.0 mg/kg/injection, schedule: Q04DX003 (ip), vehicle: Klucel (hydroxypropylcellulose) (HPC)
[16] = dose: 400.0 mg/kg/injection, schedule: Q01DX001 (ip), vehicle: saline
[17] = dose: 100.0 mg/kg/injection, schedule: Q04DX003 (ip), vehicle: saline with Tween-80
[18] = dose: 200.0 mg/kg/injection, schedule: Q04DX003 (ip), vehicle: saline with Tween-80
[19] = dose: 400.0 mg/kg/injection, schedule: Q04DX003 (ip), vehicle: saline with Tween-80

Measured: T/C

NCCNC12CC3CC(CC(C3)C1)C2
inactive: [1] 113 % of control | dose: 200.0 mg/kg/injection, schedule: Q04DX002 (ip), vehicle: saline 107 % of control

C=CCSc1cccc(Cl)c1
inactive: [2] 101 % of control | [3] 96 % of control

O=[N+]([O-])c1ccc(SCCCN2CCCCC2)c([N+](=O)[O-])c1
inactive: dose: 50.0 mg/kg/injection, schedule: Q01DX001 (ip), vehicle: carboxymethylcellulose (CMC) 96 % of control

Clc1ccc(/C=N/N2CCN(/N=C/c3ccc(Cl)cc3)CC2)cc1
inactive: [4] 96 % of control | [5] 96 % of control | [6] 96 % of control

COCCOCCOC(=O)C(CO)(CC(CO)(C(C)=O)C(=O)OCCOCCOC)C(C)=O (configuration not stated)
inactive: dose: 222.0 mg/kg/injection, schedule: Q01DX Z (ip), vehicle: saline 92 % of control | dose: 333.0 mg/kg/injection, schedule: Q01DX Z (ip), vehicle: saline 102 % of control | dose: 500.0 mg/kg/injection, schedule: Q01DX Z (ip), vehicle: saline 107 % of control

NC(=O)C1CN1Cc1ccccc1 (configuration not stated)
inactive: [7] 97 % of control | [8] 95 % of control | [9] 89 % of control

CCC1(O)CC(OC2CC(N(C)C)C(OC3CC(O)C(OC4CC(O)C(O)C(C)O4)C(C)O3)C(C)O2)c2c(cc3c(c2O)C(=O)c2c(O)ccc(O)c2C3=O)C1C(=O)OC (configuration not stated)
inactive: dose: 1.6 mg/kg/injection, schedule: Q01DX001 (ip), vehicle: saline 98 % of control | dose: 3.2 mg/kg/injection, schedule: Q01DX001 (ip), vehicle: saline 117 % of control | dose: 6.4 mg/kg/injection, schedule: Q01DX001 (ip), vehicle: saline 108 % of control | dose: 12.8 mg/kg/injection, schedule: Q01DX001 (ip), vehicle: saline 124 % of control

O=C(Nc1ccccc1F)C(c1ccccc1)c1ccccc1
inactive: [10] 103 % of control | [11] 96 % of control | [12] 93 % of control | [13] 95 % of control | [14] 94 % of control | [15] 95 % of control

NC(C[Se][Se]CC(N)C(=O)O)C(=O)O (configuration not stated)
inactive: dose: 1.56 mg/kg/injection, schedule: Q04DX002 (ip), vehicle: saline 103 % of control | dose: 3.12 mg/kg/injection, schedule: Q04DX002 (ip), vehicle: saline 103 % of control | dose: 6.25 mg/kg/injection, schedule: Q04DX002 (ip), vehicle: saline 103 % of control | dose: 12.5 mg/kg/injection, schedule: Q04DX002 (ip), vehicle: saline 88 % of control

OCCC[P+](c1ccccc1)(c1ccccc1)c1ccccc1
inactive: dose: 25.0 mg/kg/injection, schedule: Q01DX009 (ip), vehicle: Klucel (hydroxypropylcellulose) (HPC) 96 % of control | dose: 50.0 mg/kg/injection, schedule: Q01DX009 (ip), vehicle: Klucel (hydroxypropylcellulose) (HPC) 100 % of control | [11] 102 % of control

C=C1CC2CC(C)CCC2OC1=O (configuration not stated)
inactive: [2] 102 % of control | [3] 98 % of control | [16] 98 % of control

CCC(O)C1CCCO1 (configuration not stated)
inactive: dose: 25.0 mg/kg/injection, schedule: Q04DX002 (ip), vehicle: saline 103 % of control | dose: 50.0 mg/kg/injection, schedule: Q04DX002 (ip), vehicle: saline 92 % of control | [2] 104 % of control | [1] 103 % of control | [3] 95 % of control | [16] 93 % of control

O=CNc1ccccc1Sc1ccc(C(=O)O)cc1[N+](=O)[O-]
inactive: [11] 100 % of control | [13] 107 % of control | [15] 104 % of control

CNNC(=O)Cc1ccccc1
inactive: dose: 100.0 mg/kg/injection, schedule: Q01DX001 (ip), vehicle: other 92 % of control | dose: 200.0 mg/kg/injection, schedule: Q01DX001 (ip), vehicle: other 108 % of control | dose: 400.0 mg/kg/injection, schedule: Q01DX001 (ip), vehicle: other 108 % of control

COC(/C=C\C(OC)OC)OC
inactive: dose: 12.5 mg/kg/injection, schedule: Q04DX003 (ip), vehicle: saline 106 % of control | dose: 25.0 mg/kg/injection, schedule: Q04DX003 (ip), vehicle: saline 101 % of control | dose: 50.0 mg/kg/injection, schedule: Q04DX003 (ip), vehicle: saline 101 % of control | [10] 98 % of control | [12] 96 % of control | [14] 96 % of control

CC(CCC(CCCCC(CCC(C)CC(C)(C)C)CCC(C)CC(C)(C)C)CCC(C)CC(C)(C)C)CC(C)(C)C (configuration not stated)
inactive: dose: 75.0 mg/kg/injection, schedule: Q01DX001 (ip), vehicle: saline with Tween-80 103 % of control | dose: 150.0 mg/kg/injection, schedule: Q01DX001 (ip), vehicle: saline with Tween-80 98 % of control | dose: 300.0 mg/kg/injection, schedule: Q01DX001 (ip), vehicle: saline with Tween-80 98 % of control

O=C(Nc1ccc(F)cc1)OCCOc1ccc(Cl)cc1Cl
inactive: [10] 105 % of control | [12] 110 % of control | [14] 109 % of control

CCCCN(CCCC)c1ccc(N=C(C#N)c2ccc(N(CCCC)CCCC)cc2)cc1
inactive: [10] 96 % of control | [12] 96 % of control | [14] 105 % of control

c1ccc(-c2ccccc2SSc2ccccc2-c2ccccc2)cc1
inactive: [4] 96 % of control | [5] 105 % of control | [6] 91 % of control

Nc1ccc(S(=O)(=O)Nc2ccc(N(CCCl)CCCl)cc2)cc1
inactive: [7] 108 % of control | [17] 105 % of control | [8] 113 % of control | [18] 103 % of control | [9] 111 % of control | [19] 102 % of control

CC(=O)/C=C/C1C(C)=CCCC1(C)C (configuration not stated)
inactive: [17] 97 % of control | [18] 92 % of control | [19] 100 % of control

CC1=C/C(=N\N2CCCCCC2)C(C(O)(C(F)(F)F)C(F)(F)F)C(C)(C)C1 (configuration not stated)
inactive: dose: 50.0 mg/kg/injection, schedule: Q01DX009 (ip), vehicle: saline with Tween-80 90 % of control | [7] 96 % of control | [8] 86 % of control | [9] 88 % of control

O=[N+]([O-])c1ccc(F)c(Cl)c1F
inactive: dose: 10.0 mg/kg/injection, schedule: Q04DX003 (ip), vehicle: Klucel (hydroxypropylcellulose) (HPC) 103 % of control | dose: 20.0 mg/kg/injection, schedule: Q04DX003 (ip), vehicle: Klucel (hydroxypropylcellulose) (HPC) 106 % of control | dose: 40.0 mg/kg/injection, schedule: Q04DX003 (ip), vehicle: Klucel (hydroxypropylcellulose) (HPC) 99 % of control

CC(=O)N1N=C(c2ccccc2)CC1C1CC(c2ccccc2)=NN1C(C)=O (configuration not stated)
inactive: [2] 102 % of control | [3] 100 % of control | [16] 102 % of control

CC(CCl)N(CCCl)Cc1cccc(Nc2ncnc3nc[nH]c23)c1 (configuration not stated)
inactive: dose: 1.1 mg/kg/injection, schedule: Q01DX015 (ip), vehicle: saline 122 % of control | dose: 1.8 mg/kg/injection, schedule: Q01DX015 (ip), vehicle: saline 112 % of control | dose: 3.0 mg/kg/injection, schedule: Q01DX015 (ip), vehicle: saline 109 % of control | dose: 4.4 mg/kg/injection, schedule: Q01DX001 (ip), vehicle: saline 120 % of control | dose: 5.0 mg/kg/injection, schedule: Q01DX001 (ip), vehicle: saline 121 % of control | dose: 5.0 mg/kg/injection, schedule: Q01DX015 (ip), vehicle: saline 102 % of control | dose: 6.6 mg/kg/injection, schedule: Q01DX001 (ip), vehicle: saline 120 % of control | dose: 20.0 mg/kg/injection, schedule: Q01DX001 (ip), vehicle: saline 117 % of control

O=C1OC(=O)C2CC=CCC12 (configuration not stated)
inactive: [17] 106 % of control | [18] 106 % of control | [19] 98 % of control

COc1ccc(-c2oc3cc4c(cc3c2-c2ccc(OC)cc2)CCCC4)cc1
inactive: [17] 98 % of control | [18] 98 % of control | [19] 102 % of control

COc1cc(CNCc2cc(OC)c(OC)c(OC)c2)cc(OC)c1OC
inactive: dose: 50.0 mg/kg/injection, schedule: Q01DX001 (ip), vehicle: saline 102 % of control | [2] 102 % of control

CC1(c2ccccc2)OC(=O)c2c1ccc1ccccc21 (configuration not stated)
inactive: dose: 100.0 mg/kg/injection, schedule: Q01DX001 (ip), vehicle: saline with Tween-80 94 % of control | dose: 200.0 mg/kg/injection, schedule: Q01DX001 (ip), vehicle: saline with Tween-80 95 % of control | dose: 400.0 mg/kg/injection, schedule: Q01DX001 (ip), vehicle: saline with Tween-80 90 % of control
